The text below walks through data of patent publication US20230108270A1, “STABILIZATION OF COMPOUNDS AS CYCLODEXTRIN COMPLEXES” (University of Pittsburgh - Of the Commonwealth System of …, priority 2020, published 2023).

The nature of this data set: Stability of NO2-OA/β-cyclodextrin inclusion complex resuspended in water. The class given is physicochemical. Here is the method: An important consideration when working with nitroalkene fatty acids is their high sensitivity to water or humidity. […] Stability was compared with the total amount added to the aqueous solution.
These stability assays were performed at room temperature and data was similar between the two tested concentrations of 0.31 mg/ml and 1.95 mg/ml. […] A new equilibrium is rapidly achieved and the sample is stable after this initial decay.

In the case of `CCCCCCCCC(=CCCCCCCCC(=O)O)[N+](=O)[O-]` [NO2-OA, 10-nitro-octadec-9-enoic acid], the “time to complete decomposition of NO2-OA in water” value (NO2-OA added to water without cyclodextrin) was no more than 4 h. Also, where the note is “same molar amount of 10-NO2-OA added to water”, the “time to loss of 10-NO2-OA in solution” value is no more than 4 hrs.
